# Test results: patent US11110082B2, “Tyrosine kinase inhibitors” (Rigel Pharmaceuticals, Inc., priority 2016, dated 2021)
# Molecular target: T1, MerTK (Homo sapiens, UniProt Q12866)
# T1 construct: Seed HUVECs (10K cells/well) in EBM-2 complete media; host or cells: HUVEC (primary human umbilical vein endothelial cells)
# T1 sequence (Q12866 21-999): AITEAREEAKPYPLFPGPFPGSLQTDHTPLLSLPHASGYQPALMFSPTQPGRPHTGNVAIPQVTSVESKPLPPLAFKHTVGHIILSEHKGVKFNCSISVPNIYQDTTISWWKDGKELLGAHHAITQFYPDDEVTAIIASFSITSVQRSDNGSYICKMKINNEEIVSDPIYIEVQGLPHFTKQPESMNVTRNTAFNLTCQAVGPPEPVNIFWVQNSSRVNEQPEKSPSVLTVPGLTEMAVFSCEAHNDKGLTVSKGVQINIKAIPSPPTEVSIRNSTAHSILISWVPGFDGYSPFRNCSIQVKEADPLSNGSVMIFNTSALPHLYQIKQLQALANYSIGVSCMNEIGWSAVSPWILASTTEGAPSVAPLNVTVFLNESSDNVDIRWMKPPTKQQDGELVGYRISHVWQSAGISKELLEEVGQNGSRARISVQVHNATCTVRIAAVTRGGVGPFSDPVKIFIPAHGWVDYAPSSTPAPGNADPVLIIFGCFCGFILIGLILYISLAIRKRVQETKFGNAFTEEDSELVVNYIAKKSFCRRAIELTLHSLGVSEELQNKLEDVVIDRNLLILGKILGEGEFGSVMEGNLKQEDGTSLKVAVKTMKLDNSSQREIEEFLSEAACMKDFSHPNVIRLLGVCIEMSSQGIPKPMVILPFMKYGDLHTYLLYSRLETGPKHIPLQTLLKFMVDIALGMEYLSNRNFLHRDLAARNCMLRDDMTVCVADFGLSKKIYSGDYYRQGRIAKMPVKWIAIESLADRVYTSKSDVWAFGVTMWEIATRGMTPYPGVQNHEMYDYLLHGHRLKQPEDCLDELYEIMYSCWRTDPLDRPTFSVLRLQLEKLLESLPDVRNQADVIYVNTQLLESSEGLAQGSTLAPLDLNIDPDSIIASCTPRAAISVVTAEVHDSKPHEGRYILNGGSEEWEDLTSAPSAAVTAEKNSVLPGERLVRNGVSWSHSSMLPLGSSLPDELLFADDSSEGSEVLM
# Experiment: PAKT HTRF-HUVEC assay (pAkt Ser473 HTRF after anti-human MerTK-XL stimulation)
# Format: cell-based
# Conditions: HUVEC cells, 1 hour compound, stimulated with anti-human MerTK-XL 1 ug/mL for 10 minutes, read-out: inhibition of MerTK
# How it was run: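 HUVECs starved 3-4 h in basal medium, preincubated with compound 1 h at 37° C, then stimulated 10 min with cross-linked anti-human MerTK antibody (final 1 ug/mL). Lysates read for pAkt (Ser473) by HTRF; EC50 from curve fitting.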
row,Compound,EC50
1,"CCC(F)(F)CNc1ncc2c3ccc(CN4CCN(C(C)(C)C)CC4)cc3c(=O)n([C@H]3CC[C@H](O)CC3)c2n1 [Compound 198, trans-8-((4-(tert-Butyl)piperazin-1-yl)methyl)-3-((2,2-difluorobutyl)amino)-5-(4-hydroxycyclohexyl)pyrimido[4,5-c]isoquinolin-6(5H)-one]",13.2 nM
2,"CC(C)(C)N1CCN(Cc2ccc3c(c2)c(=O)n([C@H]2CC[C@H](O)CC2)c2nc(NC4CC(F)(F)C4)ncc32)CC1 [Compound 199, trans-8-((4-(tert-Butyl)piperazin-1-yl)methyl)-3-((3,3-difluorocyclobutyl)amino)-5-(4-hydroxycyclohexyl)pyrimido[4,5-c]isoquinolin-6(5H)-one]",10.8 nM
3,"O=C(O)C1CCN(Cc2ccc3c(c2)c(=O)n([C@H]2CC[C@H](O)CC2)c2nc(NCC4CC4)ncc32)CC1 [Compound 200, trans-1-((3-((Cyclopropylmethyl)amino)-5-(4-hydroxycyclohexyl)-6-oxo-5,6-dihydropyrimido[4,5-c]isoquinolin-8-yl)methyl)piperidine-4-carboxylic acid]",11300 nM
4,"CC(C)(C)OC(=O)C1CCN(Cc2ccc3c(c2)c(=O)n([C@H]2CC[C@H](O)CC2)c2nc(NCC4CC4)ncc32)CC1 [Compound 201, trans-tert-Butyl 1-((3-((cyclopropylmethyl)amino)-5-(4-hydroxycyclohexyl)-6-oxo-5,6-dihydropyrimido[4,5-c]isoquinolin-8-yl)methyl)piperidine-4-carboxylate]",72.5 nM
5,"O=c1c2cc(CN3CCCCC3)ccc2c2cnc(NCC3CC3)nc2n1[C@H]1CC[C@H](O)CC1 [Compound 202, trans-3-((Cyclopropylmethyl)amino)-5-(4-hydroxycyclohexyl)-8-(piperidin-1-ylmethyl)pyrimido[4,5-c]isoquinolin-6(5H)-one]",47.3 nM
6,"NC(=O)C1CCN(Cc2ccc3c(c2)c(=O)n([C@H]2CC[C@H](O)CC2)c2nc(NCC4CC4)ncc32)CC1 [Compound 203, trans-1-((3-((Cyclopropylmethyl)amino)-5-(4-hydroxycyclohexyl)-6-oxo-5,6-dihydropyrimido[4,5-c]isoquinolin-8-yl)methyl)piperidine-4-carboxamide]",167 nM
7,"N#CC1CCN(Cc2ccc3c(c2)c(=O)n([C@H]2CC[C@H](O)CC2)c2nc(NCC4CC4)ncc32)CC1 [Compound 204, trans-1-((3-((Cyclopropylmethyl)amino)-5-(4-hydroxycyclohexyl)-6-oxo-5,6-dihydropyrimido[4,5-c]isoquinolin-8-yl)methyl)piperidine-4-carbonitrile]",57.7 nM
8,N[C@H]1CC[C@H](n2c(=O)c3cc(Cl)ccc3c3cnc(NCC4CC4)nc32)CC1 [Compound 205],293 nM
9,CC(C)(C)OC(=O)N1CCC(Cc2ccc3c(c2)c(=O)n([C@H]2CC[C@H](O)CC2)c2nc(NCC4CC4)ncc32)CC1 [Compound 206],1280 nM
10,"O=c1c2cc(CC3CCNCC3)ccc2c2cnc(NCC3CC3)nc2n1[C@H]1CC[C@H](O)CC1 [Compound 207, trans-3-((Cyclopropylmethyl)amino)-5-(4-hydroxycyclohexyl)-8-(piperidin-4-ylmethyl)pyrimido[4,5-c]isoquinolin-6(5H)-one]",537 nM
11,"O=c1c2cc(OCCCN3CCOCC3)ccc2c2cnc(NCC3CC3)nc2n1[C@H]1CC[C@H](O)CC1 [Compound 208, trans-3-((Cyclopropylmethyl)amino)-5-(4-hydroxycyclohexyl)-8-(3-morpholinopropoxy)pyrimido[4,5-c]isoquinolin-6(5H)-one]",415 nM
12,"O=c1c2cc(CN3CCC4(CC3)COC4)ccc2c2cnc(NC3CCC3)nc2n1[C@H]1CC[C@H](O)CC1 [Compound 209, trans-8-((2-Oxa-7-azaspiro[3.5]nonan-7-yl)methyl)-3-(cyclobutylamino)-5-(4-hydroxycyclohexyl)pyrimido[4,5-c]isoquinolin-6(5H)-one]",13.9 nM
13,"O=c1c2cc(CN3CCC4(CC3)COC4)ccc2c2cnc(NC3CC(F)(F)C3)nc2n1[C@H]1CC[C@H](O)CC1 [Compound 210, trans-8-((2-Oxa-7-azaspiro[3.5]nonan-7-yl)methyl)-3-((3,3-difluorocyclobutyl)amino)-5-(4-hydroxycyclohexyl)pyrimido[4,5-c]isoquinolin-6(5H)-one]",85.6 nM
14,"O=c1c2cc(CN3CCN(c4ccncc4)CC3)ccc2c2cnc(NC3CC(F)(F)C3)nc2n1[C@H]1CC[C@H](O)CC1 [Compound 212, trans-3-((3,3-Difluorocyclobutyl)amino)-5-(4-hydroxycyclohexyl)-8-((4-(pyridin-4-yl)piperazin-1-yl)methyl)pyrimido[4,5-c]isoquinolin-6(5H)-one]",63.6 nM
15,"CCC[C@H](C)Nc1ncc2c3ccc(CN4CCN(C)CC4)cc3c(=O)n([C@H]3CC[C@H](O)CC3)c2n1 [Compound 213, trans-5-(4-hydroxycyclohexyl)-8-((4-methylpiperazin-1-yl)methyl)-3-(((S)-pentan-2-yl)amino)pyrimido[4,5-c]isoquinolin-6(5H)-one]",30.4 nM
16,"CCC[C@H](C)Nc1ncc2c3ccc(CN4CCC5(CC4)COC5)cc3c(=O)n([C@H]3CC[C@H](O)CC3)c2n1 [Compound 214, trans-8-((2-oxa-7-azaspiro[3.5]nonan-7-yl)methyl)-5-(4-hydroxycyclohexyl)-3-(((5)-pentan-2-yl)amino)pyrimido[4,5-c]isoquinolin-6(5H)-one]",10.5 nM
17,CCC[C@H](C)Nc1ncc2c3ccc(CN4CCN(C(C)(C)C)CC4)cc3c(=O)n([C@H]3CC[C@H](O)CC3)c2n1 [Compound 215],3.7 nM
18,"O=c1c2cc(CN3CCN(c4ccncn4)CC3)ccc2c2cnc(NCC3CC3)nc2n1[C@H]1CC[C@H](O)CC1 [Compound 216, trans-3-((Cyclopropylmethyl)amino)-5-(4-hydroxycyclohexyl)-8-((4-(pyrimidin-4-yl)piperazin-1-yl)methyl)pyrimido[4,5-c]isoquinolin-6(5H)-one]",22.5 nM
19,"O=c1c2cc(CN3CCC(c4ccncc4)CC3)ccc2c2cnc(NCC3CC3)nc2n1[C@H]1CC[C@H](O)CC1 [Compound 217, trans-3-((Cyclopropylmethyl)amino)-5-(4-hydroxycyclohexyl)-8-((4-(pyridin-4-yl)piperidin-1-yl)methyl)pyrimido[4,5-c]isoquinolin-6(5H)-one]",4.1 nM
20,"O=c1c2cc(CC3CCN(c4ccncc4)CC3)ccc2c2cnc(NCC3CC3)nc2n1[C@H]1CC[C@H](O)CC1 [Compound 218, trans-3-((Cyclopropylmethyl)amino)-5-(4-hydroxycyclohexyl)-8-((1-(pyridin-4-yl)piperidin-4-yl)methyl)pyrimido[4,5-c]isoquinolin-6(5H)-one]",24.2 nM
21,"CCC[C@H](C)Nc1ncc2c3ccc(CN4CCN(c5ccncc5)CC4)cc3c(=O)n([C@H]3CC[C@H](O)CC3)c2n1 [Compound 219, trans-5-(4-Hydroxycyclohexyl)-3-(((S)-pentan-2-yl)amino)-8-((4-(pyridin-4-yl)piperazin-1-yl)methyl)pyrimido[4,5-c]isoquinolin-6(5H)-one]",18.3 nM
22,"O=c1c2cc(CN3CCN(c4ccncc4)CC3)ccc2c2cnc(NCC3CCC3)nc2n1[C@H]1CC[C@H](O)CC1 [Compound 220, trans-3-((Cyclobutylmethyl)amino)-5-(4-hydroxycyclohexyl)-8-((4-(pyridin-4-yl)piperazin-1-yl)methyl)pyrimido[4,5-c]isoquinolin-6(5H)-one]",11.2 nM
23,"CCC(F)(F)CNc1ncc2c3ccc(CN4CCN(c5ccncc5)CC4)cc3c(=O)n([C@H]3CC[C@H](O)CC3)c2n1 [Compound 221, trans-3-((2,2-Difluorobutyl)amino)-5-(4-hydroxycyclohexyl)-8-((4-(pyridin-4-yl)piperazin-1-yl)methyl)pyrimido[4,5-c]isoquinolin-6(5H)-one]",86.1 nM
24,"O=c1c2cc(CN3CCN(c4ccncc4)CC3)ccc2c2cnc(NCCC3CC3)nc2n1[C@H]1CC[C@H](O)CC1 [Compound 222, trans-3-((2-Cyclopropylethyl)amino)-5-(4-hydroxycyclohexyl)-8-((4-(pyridin-4-yl)piperazin-1-yl)methyl)pyrimido[4,5-c]isoquinolin-6(5H)-one]",14.5 nM
25,"CC(C)CCNc1ncc2c3ccc(CN4CCN(c5ccncc5)CC4)cc3c(=O)n([C@H]3CC[C@H](O)CC3)c2n1 [Compound 223, trans-5-(4-Hydroxycyclohexyl)-3-(isopentylamino)-8-((4-(pyridin-4-yl)piperazin-1-yl)methyl)pyrimido[4,5-c]isoquinolin-6(5H)-one]",14.3 nM
